The structures appear in SMILES notation.

The record followed here is PMC6549035, “CUMYL-4CN-BINACA Is an Efficacious and Potent Pro-Convulsant Synthetic Cannabinoid Receptor Agonist” (Frontiers in Pharmacology, 2019).

Assay [1] has as its target T1, human CB2 receptor (hCB2) (Homo sapiens, UniProt P34972).
T1 construct: gene CNR2; 3-HA tagged CB2 receptor
The assay can be described thus: [3H]-CP […] competition radioligand binding on HEK293 membranes.

For assay [2], the target named is T2, human CB1 receptor (hCB1) (Homo sapiens, UniProt P21554).
T2 construct: gene CNR1
The description is as above.

T1 sequence (P34972 whole entry): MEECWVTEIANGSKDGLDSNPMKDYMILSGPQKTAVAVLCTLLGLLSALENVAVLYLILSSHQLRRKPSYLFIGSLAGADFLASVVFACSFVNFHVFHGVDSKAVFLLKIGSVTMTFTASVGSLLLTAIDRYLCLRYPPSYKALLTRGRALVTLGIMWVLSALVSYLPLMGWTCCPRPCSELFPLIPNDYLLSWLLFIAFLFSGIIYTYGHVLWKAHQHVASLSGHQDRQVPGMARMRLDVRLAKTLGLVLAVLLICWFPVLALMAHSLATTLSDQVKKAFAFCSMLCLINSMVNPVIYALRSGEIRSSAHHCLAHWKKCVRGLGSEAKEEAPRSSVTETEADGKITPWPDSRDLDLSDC
T2 sequence (P21554 whole entry): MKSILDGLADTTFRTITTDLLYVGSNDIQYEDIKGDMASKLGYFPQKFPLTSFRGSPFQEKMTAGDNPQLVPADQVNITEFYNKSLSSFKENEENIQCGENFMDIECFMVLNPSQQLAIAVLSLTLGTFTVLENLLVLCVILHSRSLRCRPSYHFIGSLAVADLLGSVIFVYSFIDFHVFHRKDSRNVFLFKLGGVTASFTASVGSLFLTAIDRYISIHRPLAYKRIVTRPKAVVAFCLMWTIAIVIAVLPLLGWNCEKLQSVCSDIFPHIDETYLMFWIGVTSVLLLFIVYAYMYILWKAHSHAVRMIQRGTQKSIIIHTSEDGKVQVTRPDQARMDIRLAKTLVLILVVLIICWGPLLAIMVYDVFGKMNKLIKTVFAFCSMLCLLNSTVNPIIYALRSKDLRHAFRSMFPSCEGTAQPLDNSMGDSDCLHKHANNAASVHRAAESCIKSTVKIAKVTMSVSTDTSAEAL

In general, Ki refers to the dissociation constant of the complex between target and ligand, obtained from inhibition or displacement. A higher Ki goes with a looser hold on the target. For the compound `CC(C)(NC(=O)c1nn(CCCCC#N)c2ccccc12)c1ccccc1` [compound 1, 1-(4-cyanobutyl)-N-(2-phenylpropan-2-yl)indazole-3-carboxamide], the figures for the Ki in assay [1] and in assay [2] were 14.7 nM and 2.6 nM, respectively.
